From PMC7296167, “SrrB, a Pseudo-Receptor Protein, Acts as a Negative Regulator for Lankacidin and Lankamycin Production in Streptomyces rochei” (Frontiers in Microbiology, 2020)

What was measured:
[1] = target: T1, SrrB (Streptomyces rochei, UniProt Q83X25); assay: gel shift assay, dissociation from […]-labelled srrY promoter probe Y1; type: binding; conditions: 0.5 nM probe Y1, 2,000 nM SrrB, 26 C, pH 8.0; DNA release read-out
T1 construct: pET32b(+) His6 fusion from E. coli BL21(DE3)pLysS; N-terminal tag removed with enterokinase
T1 sequence (Q83X25 1-228): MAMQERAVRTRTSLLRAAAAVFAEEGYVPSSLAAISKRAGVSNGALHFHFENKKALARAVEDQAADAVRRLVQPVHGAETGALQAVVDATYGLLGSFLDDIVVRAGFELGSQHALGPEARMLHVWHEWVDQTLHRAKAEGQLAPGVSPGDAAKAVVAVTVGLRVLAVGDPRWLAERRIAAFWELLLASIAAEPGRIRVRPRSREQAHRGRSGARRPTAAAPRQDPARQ

[2] = target: T2, SrrA (Streptomyces rochei, UniProt Q83X22); assay: gel shift assay, dissociation from […]-labelled srrB probe B1 and srrY probe Y1; type: binding; conditions: […] SRB1 on probe B1, concentration series on probe Y1; […] SrrA, […] probe, […] C, pH […]
T2 construct: recombinant, overexpressed in E. coli, prepared as in Yamamoto et al. 2008
T2 sequence (Q83X22 1-222): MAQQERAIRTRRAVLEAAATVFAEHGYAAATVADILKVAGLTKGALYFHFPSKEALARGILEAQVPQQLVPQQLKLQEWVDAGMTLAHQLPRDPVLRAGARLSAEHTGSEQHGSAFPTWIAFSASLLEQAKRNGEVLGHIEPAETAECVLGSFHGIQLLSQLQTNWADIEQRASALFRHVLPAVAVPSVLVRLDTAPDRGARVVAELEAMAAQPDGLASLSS

CC1=C([C@H](O)CCCCC(=O)CC(C)C)C(=O)OC1O (some centres unmarked) [compound 7, SRB1]
concentration required for dissociation [1]: 1 mM
gel shift assay, dissociation from 32P-labelled srrB probe B1 and srrY probe Y1 [2]: Addition of SRB led to dissociation of SrrA from probe B1
